Experimental data published in patent US20080207641A1 (Synta Pharmaceuticals Corp., priority 2006, published 2008).
Converted amounts (≈) assume the structure as drawn. Where two headings read alike, the source gives them in different places.

Assays:
[1] = test system: IL-2 production; test: Inhibition of IL-2 production in PHA-activated Jurkat cells (ELISA); type: cell-based; details: Homo sapiens, 20 h, PHA 2.5 μg/mL, 20 hours at 37° C., IL-2 ELISA
Description: Jurkat cells were placed in a 96 well plate (0.5 million cells per well in 1% FBS medium) then a test compound of this invention was added at different concentrations. After 10 minutes, the cells were activated with PHA (final concentration 2.5 μg/mL) and incubated for 20 hours at 37° C. under CO2. The final volume was 200 μL. Following incubation, the cells were centrifuged and the supernatants collected and stored at −70° C. prior to assaying for IL-2 production. A commercial ELISA kit (IL-2 Eli-pair, Diaclone Research, Besancon, France) was used to detect production of IL-2, from which dose response curves were obtained. The IC50 value was calculated as the concentration at which 50% of maximum IL-2 production after stimulation was inhibited versus a non-stimulation control.

[2] = Solubility in simulated gastric fluids; type: physicochemical
Excerpt: Solubility in Simulated Gastric Fluids

SMILES	IC50 [1] [nM]	solubility ([2]; simulated gastric fluid) [µM]	solubility [2] [µM]
CC1=C(c2ccc(NC(=O)c3c(F)cccc3Cl)nc2)CN(c2nnn(C)n2)CC1 [Compound 23, 2-chloro-6-fluoro-N-(5-(4-methyl-1-(2-methyl-2H-tetrazol-5-yl)-1,2,5,6-tetrahydropyridin-3-yl)pyridin-2-yl)benzamide]	> 1000	25 (≈ 10.7 µg/mL)	
CC1=C(c2cnc(NC(=O)c3c(F)cccc3Cl)cn2)CN(c2nccs2)CC1 [Compound 20, 2-chloro-6-fluoro-N-(5-(4-methyl-1-(thiazol-2-yl)-1,2,5,6-tetrahydropyridin-3-yl)pyrazin-2-yl)benzamide]	≤ 35		150 (≈ 64.5 µg/mL)
CC1=C(c2cnc(NC(=O)c3c(F)cccc3F)cn2)CN(c2nnn(C)n2)CC1 [Compound 2, 2,6-difluoro-N-(5-(4-methyl-1-(2-methyl-2H-tetrazol-5-yl)-1,2,5,6-tetrahydropyridin-3-yl)pyrazin-2-yl)benzamide]	35 to 75	50 (≈ 20.6 µg/mL)	
CC1=C(c2cnc(NC(=O)c3ccccc3F)cn2)CN(c2nccs2)CC1 [Compound 31, 2-fluoro-N-(5-(4-methyl-1-(thiazol-2-yl)-1,2,5,6-tetrahydropyridin-3-yl)pyrazin-2-yl)benzamide]	35 to 75	25 (≈ 9.89 µg/mL)	
CC1=C(c2cnc(NC(=O)c3c(F)cncc3F)cn2)CN(c2nccs2)CC1.Cl [Compound 34, 3,5-difluoro-N-(5-(4-methyl-1-(thiazol-2-yl)-1,2,5,6-tetrahydropyridin-3-yl)pyrazin-2-yl)isonicotinamide hydrochloride]		25	
CC1=C(c2ccc(NC(=O)c3ccc(F)cc3F)nc2)CN(c2nnn(C)n2)CC1 [Compound 21, 2,4-difluoro-N-(5-(4-methyl-1-(2-methyl-2H-tetrazol-5-yl)-1,2,5,6-tetrahydropyridin-3-yl)pyridin-2-yl)benzamide]			150 (≈ 61.7 µg/mL)
CSc1ncccc1C(=O)Nc1ccc(C2=C(C)CCN(c3nccs3)C2)cc1 [Compound 14, N-(4-(4-methyl-1-(thiazol-2-yl)-1,2,5,6-tetrahydropyridin-3-yl)phenyl)-2-(methylthio)nicotinamide]	150 to 1000		
CC1=C(c2cnc(NC(=O)c3ccc(F)cc3F)cn2)CN(c2nnn(C)n2)CC1 [Compound 24, 2,4-difluoro-N-(5-(4-methyl-1-(2-methyl-2H-tetrazol-5-yl)-1,2,5,6-tetrahydropyridin-3-yl)pyrazin-2-yl)benzamide]	75 to 150	50 (≈ 20.6 µg/mL)	
CC(C)=CC(=O)Nc1ccc(C2=C(C)CCN(c3nnn(C)n3)C2)cn1 [Compound 28, 3-methyl-N-(5-(4-methyl-1-(2-methyl-2H-tetrazol-5-yl)-1,2,5,6-tetrahydropyridin-3-yl)pyridin-2-yl)but-2-enamide]		50 (≈ 17.7 µg/mL)	
O=C(Nc1ccc(C2=C(Cl)CCN(c3nccs3)C2)cn1)c1c(F)cccc1F [Compound 26, N-(5-(4-chloro-1-(thiazol-2-yl)-1,2,5,6-tetrahydropyridin-3-yl)pyridin-2-yl)-2,6-difluorobenzamide]	≤ 35	100 (≈ 43.3 µg/mL)	
CC1=C(c2ccc(NCc3c(F)cccc3F)nc2)CN(c2nccs2)CC1.Cl.Cl [Compound 7, N-(2,6-difluorobenzyl)-5-(4-methyl-1-(thiazol-2-yl)-1,2,5,6-tetrahydropyridin-3-yl)pyridin-2-amine dihydrochloride]	35 to 75	100	
CC1=C(c2ccc(NC(=O)c3ccc(F)cc3F)cc2)CN(c2nccs2)CC1.Cl [Compound 19, 2,4-difluoro-N-(4-(4-methyl-1-(thiazol-2-yl)-1,2,5,6-tetrahydropyridin-3-yl)phenyl)benzamide hydrochloride]			150
Cn1nnc(N2CCC(Cl)=C(c3ccc(NC(=O)c4c(F)cccc4F)nc3)C2)n1 [Compound 25, N-(5-(4-chloro-1-(2-methyl-2H-tetrazol-5-yl)-1,2,5,6-tetrahydropyridin-3-yl)pyridin-2-yl)-2,6-difluorobenzamide]	≤ 35	50 (≈ 21.6 µg/mL)	
CC1=C(c2ccc(NCc3c(F)cccc3F)cc2)CN(c2nccs2)CC1 [Compound 5, N-(2,6-difluorobenzyl)-4-(4-methyl-1-(thiazol-2-yl)-1,2,5,6-tetrahydropyridin-3-yl)aniline]	≤ 35	50 (≈ 19.9 µg/mL)	
O=C(Nc1ccc(C2=C(Cl)CCN(c3nccs3)C2)cn1)c1ccc(F)cc1F [Compound 27]	75 to 150	50 (≈ 21.6 µg/mL)	
CC1=C(c2ccc(NC(=O)c3ccccc3C(F)(F)F)cc2)CN(c2nccs2)CC1 [Compound 9, N-(4-(4-methyl-1-(thiazol-2-yl)-1,2,5,6-tetrahydropyridin-3-yl)phenyl)-2-(trifluoromethyl)benzamide]	35 to 75		
CC1=C(c2ccc(NC(=O)c3c(Cl)cccc3Cl)cc2)CN(c2nccs2)CC1 [Compound 10, 2,6-dichloro-N-(4-(4-methyl-1-(thiazol-2-yl)-1,2,5,6-tetrahydropyridin-3-yl)phenyl)benzamide]	75 to 150	50 (≈ 22.2 µg/mL)	
CCC(Cl)C(=O)Nc1ccc(C2=C(C)CCN(c3nccs3)C2)cc1 (stereo not shown) [Compound 15, 2-chloro-N-(4-(4-methyl-1-(thiazol-2-yl)-1,2,5,6-tetrahydropyridin-3-yl)phenyl)butanamide]	≤ 35		150 (≈ 56.4 µg/mL)
CC1=C(c2cnc(NC(=O)c3c(F)cccc3Cl)cn2)CN(c2nnn(C)n2)CC1 [Compound 35, 2-chloro-6-fluoro-N-(5-(4-methyl-1-(2-methyl-2H-tetrazol-5-yl)-1,2,5,6-tetrahydropyridin-3-yl)pyrazin-2-yl)benzamide]		25 (≈ 10.7 µg/mL)	
Cc1cncnc1C(=O)Nc1ccc(C2=C(C=O)CCN(c3nccs3)C2)cc1 [Compound 1, N-(4-(4-formyl-1-(thiazol-2-yl)-1,2,5,6-tetrahydropyridin-3-yl)phenyl)-5-methylpyrimidine-4-carboxamide]	75 to 150		
O=C(Nc1ccc(-c2cc(-c3nccs3)ccc2Cl)cc1)c1c(O)cccc1F [Compound 18, N-(2′-chloro-5′-(thiazol-2-yl)biphenyl-4-yl)-2-fluoro-6-hydroxybenzamide]	75 to 150		
CC1=C(c2ccc(NC(=O)c3c(F)cccc3F)nc2)CN(c2nccn2C)CC1 [Compound 22, 2,6-difluoro-N-(5-(4-methyl-1-(1-methyl-1H-imidazol-2-yl)-1,2,5,6-tetrahydropyridin-3-yl)pyridin-2-yl)benzamide]	> 1000		
CC1=C(c2ccc(NC(=O)c3c(F)cccc3C(F)(F)F)cc2)CN(c2nccs2)CC1 [Compound 8, 2-fluoro-N-(4-(4-methyl-1-(thiazol-2-yl)-1,2,5,6-tetrahydropyridin-3-yl)phenyl)-6-(trifluoromethyl)benzamide]	75 to 150		
CC1=C(c2ccc(NC(=O)C3c4ccccc4-c4ccccc43)cc2)CN(c2nccs2)CC1 [Compound 17, N-(4-(4-methyl-1-(thiazol-2-yl)-1,2,5,6-tetrahydropyridin-3-yl)phenyl)-9H-fluorene-9-carboxamide]	150 to 1000		
CC1=C(c2cnc(NC(=O)c3c(F)cccc3F)cn2)CN(c2nnnn2C)CC1 [Compound 3, 2,6-difluoro-N-(5-(4-methyl-1-(1-methyl-1H-tetrazol-5-yl)-1,2,5,6-tetrahydropyridin-3-yl)pyrazin-2-yl)benzamide]	> 1000		
